According to the supplement of paper PMC13207355:
Where a name gives a salt, the structure may show the parent alone.

How the values were obtained:
Conditions in all cases: exposure time: 72 h
E13 [1] = patient-derived glioblastoma stem cells of classical subtype; test: surviving fraction (nuclei count normalised to DMSO); higher = more cells surviving (less toxic)
E21 [2] = patient-derived glioblastoma stem cells of mesenchymal subtype; test: as above
E28 [3] = patient-derived glioblastoma stem cells of classical subtype; test: as above
E31 [4] = patient-derived glioblastoma stem cells of proneural subtype; test: as above
E34 [5] = patient-derived glioblastoma stem cells of proneural subtype; test: as above
E57 [6] = patient-derived glioblastoma stem cells of mesenchymal subtype; test: as above
FT3469 [7] = normal neural stem cell line; test: as above
E13 [8] = test: phenotypic distance (Euclidean, principal components) from DMSO controls (arbitrary units); higher = stronger morphological change
E21 [9] = test: as above
E28 [10] = test: as above
E31 [11] = test: as above
E34 [12] = test: as above
E57 [13] = test: as above
FT3469 [14] = test: as above
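For phenotypic distance (Euclidean, principal components) from DMSO controls in this document: cell Painting imaging in 384-well plates, CellProfiler features reduced to at least 20 principal components, Euclidean distance versus same-plate DMSO vehicle wells (0.1% v/v), median over six images per well.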
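For surviving fraction (nuclei count normalised to DMSO) in this document: nuclei counted by high-content imaging of Hoechst-stained cells in laminin-coated 384-well plates, relative to 0.1% DMSO vehicle wells, with staurosporine as cell-death control.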

CC(C)C[C@H](NC(=O)CNC(=O)c1cc(Cl)ccc1Cl)B1OC(=O)C(CC(=O)O)(CC(=O)O)O1 [MLN9708]
surviving fraction (E13 [1]; 4.1 nM): 0.0208
surviving fraction (E13 [1]; 12.3 nM): 0.00954
surviving fraction (E13 [1]; 37 nM): 0.0104
surviving fraction (E13 [1]; 111.1 nM): 0.00174
surviving fraction (E13 [1]; 333.3 nM): 0.00347
surviving fraction (E13 [1]; 1000 nM): 0.00607
surviving fraction (E13 [1]; 3000 nM): 0.000868
surviving fraction (E21 [2]; 4.1 nM): 0.0299
surviving fraction (E21 [2]; 12.3 nM): 0.0187
surviving fraction (E21 [2]; 37 nM): 0.0103
surviving fraction (E21 [2]; 111.1 nM): 0.0103
surviving fraction (E21 [2]; 333.3 nM): 0.0084
surviving fraction (E21 [2]; 1000 nM): 0.00373
surviving fraction (E21 [2]; 3000 nM): 0.000933
surviving fraction (E28 [3]; 4.1 nM): 0.244
surviving fraction (E28 [3]; 12.3 nM): 0.239
surviving fraction (E28 [3]; 37 nM): 0.158
surviving fraction (E28 [3]; 111.1 nM): 0.0898
surviving fraction (E28 [3]; 333.3 nM): 0.0988
surviving fraction (E28 [3]; 1000 nM): 0.0719
surviving fraction (E28 [3]; 3000 nM): 0.0719
surviving fraction (E31 [4]; 4.1 nM): 0.082
surviving fraction (E31 [4]; 12.3 nM): 0.0803
surviving fraction (E31 [4]; 37 nM): 0.0151
surviving fraction (E31 [4]; 111.1 nM): 0.00335
surviving fraction (E31 [4]; 333.3 nM): 0.00669
surviving fraction (E31 [4]; 1000 nM): 0.00335
surviving fraction (E31 [4]; 3000 nM): 0.00669
surviving fraction (E34 [5]; 4.1 nM): 0.307
surviving fraction (E34 [5]; 12.3 nM): 0.293
surviving fraction (E34 [5]; 37 nM): 0.123
surviving fraction (E34 [5]; 111.1 nM): 0.0439
surviving fraction (E34 [5]; 333.3 nM): 0.064
surviving fraction (E34 [5]; 1000 nM): 0.0421
surviving fraction (E34 [5]; 3000 nM): 0.0549
surviving fraction (E57 [6]; 4.1 nM): 0.0256
surviving fraction (E57 [6]; 12.3 nM): 0.0162
surviving fraction (E57 [6]; 37 nM): 0.011
surviving fraction (E57 [6]; 111.1 nM): 0.00523
surviving fraction (E57 [6]; 333.3 nM): 0.00523
surviving fraction (E57 [6]; 1000 nM): 0.00366
surviving fraction (E57 [6]; 3000 nM): 0.0105
surviving fraction (FT3469 [7]; 4.1 nM): 0.412
surviving fraction (FT3469 [7]; 12.3 nM): 0.492
surviving fraction (FT3469 [7]; 37 nM): 0.439
surviving fraction (FT3469 [7]; 111.1 nM): 0.445
surviving fraction (FT3469 [7]; 333.3 nM): 0.306
surviving fraction (FT3469 [7]; 1000 nM): 0.156
surviving fraction (FT3469 [7]; 3000 nM): 0.212
phenotypic distance (E13 [8]; 4.1 nM): 9.36
phenotypic distance (E13 [8]; 12.3 nM): 9.93
phenotypic distance (E13 [8]; 37 nM): 9
phenotypic distance (E13 [8]; 111.1 nM): 12.2
phenotypic distance (E13 [8]; 333.3 nM): 10.8
phenotypic distance (E13 [8]; 1000 nM): 10.1
phenotypic distance (E13 [8]; 3000 nM): 16.2
phenotypic distance (E21 [9]; 4.1 nM): 7.66
phenotypic distance (E21 [9]; 12.3 nM): 7.71
phenotypic distance (E21 [9]; 37 nM): 11.9
phenotypic distance (E21 [9]; 111.1 nM): 7.64
phenotypic distance (E21 [9]; 333.3 nM): 11.8
phenotypic distance (E21 [9]; 1000 nM): 11.7
phenotypic distance (E21 [9]; 3000 nM): 15.7
phenotypic distance (E28 [10]; 4.1 nM): 3.84
phenotypic distance (E28 [10]; 12.3 nM): 3.91
phenotypic distance (E28 [10]; 37 nM): 4.06
phenotypic distance (E28 [10]; 111.1 nM): 7.19
phenotypic distance (E28 [10]; 333.3 nM): 5.5
phenotypic distance (E28 [10]; 1000 nM): 5.6
phenotypic distance (E28 [10]; 3000 nM): 6.86
phenotypic distance (E31 [11]; 4.1 nM): 5.67
phenotypic distance (E31 [11]; 12.3 nM): 7.74
phenotypic distance (E31 [11]; 37 nM): 9.26
phenotypic distance (E31 [11]; 111.1 nM): 14.5
phenotypic distance (E31 [11]; 333.3 nM): 11.4
phenotypic distance (E31 [11]; 1000 nM): 13
phenotypic distance (E31 [11]; 3000 nM): 12.3
phenotypic distance (E34 [12]; 4.1 nM): 5.41
phenotypic distance (E34 [12]; 12.3 nM): 6.29
phenotypic distance (E34 [12]; 37 nM): 7.18
phenotypic distance (E34 [12]; 111.1 nM): 10.9
phenotypic distance (E34 [12]; 333.3 nM): 8.93
phenotypic distance (E34 [12]; 1000 nM): 12.6
phenotypic distance (E34 [12]; 3000 nM): 10.5
phenotypic distance (E57 [13]; 4.1 nM): 11.8
phenotypic distance (E57 [13]; 12.3 nM): 12.3
phenotypic distance (E57 [13]; 37 nM): 11.3
phenotypic distance (E57 [13]; 111.1 nM): 10.8
phenotypic distance (E57 [13]; 333.3 nM): 14.4
phenotypic distance (E57 [13]; 1000 nM): 8.37
phenotypic distance (E57 [13]; 3000 nM): 8.49
phenotypic distance (FT3469 [14]; 4.1 nM): 3.13
phenotypic distance (FT3469 [14]; 12.3 nM): 3.57
phenotypic distance (FT3469 [14]; 37 nM): 5.22
phenotypic distance (FT3469 [14]; 111.1 nM): 6.65
phenotypic distance (FT3469 [14]; 333.3 nM): 7.14
phenotypic distance (FT3469 [14]; 1000 nM): 7.83
phenotypic distance (FT3469 [14]; 3000 nM): 8.15

CNCCCC12CCC(c3ccccc31)c1ccccc12 [Maprotiline hydrochloride]
surviving fraction (E13 [1]; 4.1 nM): 0.984
surviving fraction (E13 [1]; 12.3 nM): 1.05
surviving fraction (E13 [1]; 37 nM): 0.987
surviving fraction (E13 [1]; 111.1 nM): 1.05
surviving fraction (E13 [1]; 333.3 nM): 1.1
surviving fraction (E13 [1]; 1000 nM): 1.05
surviving fraction (E13 [1]; 3000 nM): 0.911
surviving fraction (E21 [2]; 4.1 nM): 1.04
surviving fraction (E21 [2]; 12.3 nM): 0.944
surviving fraction (E21 [2]; 37 nM): 0.982
surviving fraction (E21 [2]; 111.1 nM): 1.06
surviving fraction (E21 [2]; 333.3 nM): 1.02
surviving fraction (E21 [2]; 1000 nM): 1.03
surviving fraction (E21 [2]; 3000 nM): 1.06
surviving fraction (E28 [3]; 4.1 nM): 1.23
surviving fraction (E28 [3]; 12.3 nM): 0.929
surviving fraction (E28 [3]; 37 nM): 0.979
surviving fraction (E28 [3]; 111.1 nM): 1.21
surviving fraction (E28 [3]; 333.3 nM): 1.13
surviving fraction (E28 [3]; 1000 nM): 0.951
surviving fraction (E28 [3]; 3000 nM): 0.979
surviving fraction (E31 [4]; 4.1 nM): 1.07
surviving fraction (E31 [4]; 12.3 nM): 1.06
surviving fraction (E31 [4]; 37 nM): 1.02
surviving fraction (E31 [4]; 111.1 nM): 0.859
surviving fraction (E31 [4]; 333.3 nM): 1.18
surviving fraction (E31 [4]; 1000 nM): 1.05
surviving fraction (E31 [4]; 3000 nM): 1.01
surviving fraction (E34 [5]; 4.1 nM): 1.04
surviving fraction (E34 [5]; 12.3 nM): 0.869
surviving fraction (E34 [5]; 37 nM): 0.875
surviving fraction (E34 [5]; 111.1 nM): 1.01
surviving fraction (E34 [5]; 333.3 nM): 1.02
surviving fraction (E34 [5]; 1000 nM): 0.997
surviving fraction (E34 [5]; 3000 nM): 1.07
surviving fraction (E57 [6]; 4.1 nM): 1.06
surviving fraction (E57 [6]; 12.3 nM): 1.12
surviving fraction (E57 [6]; 37 nM): 1.09
surviving fraction (E57 [6]; 111.1 nM): 1.1
surviving fraction (E57 [6]; 333.3 nM): 0.986
surviving fraction (E57 [6]; 1000 nM): 0.93
surviving fraction (E57 [6]; 3000 nM): 1.09
surviving fraction (FT3469 [7]; 4.1 nM): 1.09
surviving fraction (FT3469 [7]; 12.3 nM): 1.18
surviving fraction (FT3469 [7]; 37 nM): 1.3
surviving fraction (FT3469 [7]; 111.1 nM): 1.07
surviving fraction (FT3469 [7]; 333.3 nM): 0.901
surviving fraction (FT3469 [7]; 1000 nM): 1.16
surviving fraction (FT3469 [7]; 3000 nM): 0.869
phenotypic distance (E13 [8]; 4.1 nM): 0.553
phenotypic distance (E13 [8]; 12.3 nM): 0.296
phenotypic distance (E13 [8]; 37 nM): 0.356
phenotypic distance (E13 [8]; 111.1 nM): 0.55
phenotypic distance (E13 [8]; 333.3 nM): 0.608
phenotypic distance (E13 [8]; 1000 nM): 0.471
phenotypic distance (E13 [8]; 3000 nM): 0.392
phenotypic distance (E21 [9]; 4.1 nM): 0.674
phenotypic distance (E21 [9]; 12.3 nM): 1.04
phenotypic distance (E21 [9]; 37 nM): 0.745
phenotypic distance (E21 [9]; 111.1 nM): 1.03
phenotypic distance (E21 [9]; 333.3 nM): 0.9
phenotypic distance (E21 [9]; 1000 nM): 0.798
phenotypic distance (E21 [9]; 3000 nM): 0.546
phenotypic distance (E28 [10]; 4.1 nM): 0.756
phenotypic distance (E28 [10]; 12.3 nM): 0.57
phenotypic distance (E28 [10]; 37 nM): 0.744
phenotypic distance (E28 [10]; 111.1 nM): 0.651
phenotypic distance (E28 [10]; 333.3 nM): 0.753
phenotypic distance (E28 [10]; 1000 nM): 0.525
phenotypic distance (E28 [10]; 3000 nM): 0.615
phenotypic distance (E31 [11]; 4.1 nM): 0.322
phenotypic distance (E31 [11]; 12.3 nM): 0.404
phenotypic distance (E31 [11]; 37 nM): 0.529
phenotypic distance (E31 [11]; 111.1 nM): 0.826
phenotypic distance (E31 [11]; 333.3 nM): 0.77
phenotypic distance (E31 [11]; 1000 nM): 0.546
phenotypic distance (E31 [11]; 3000 nM): 0.55
phenotypic distance (E34 [12]; 4.1 nM): 0.824
phenotypic distance (E34 [12]; 12.3 nM): 0.524
phenotypic distance (E34 [12]; 37 nM): 0.568
phenotypic distance (E34 [12]; 111.1 nM): 1.03
phenotypic distance (E34 [12]; 333.3 nM): 0.644
phenotypic distance (E34 [12]; 1000 nM): 1.11
phenotypic distance (E34 [12]; 3000 nM): 0.788
phenotypic distance (E57 [13]; 4.1 nM): 0.339
phenotypic distance (E57 [13]; 12.3 nM): 0.804
phenotypic distance (E57 [13]; 37 nM): 0.81
phenotypic distance (E57 [13]; 111.1 nM): 0.882
phenotypic distance (E57 [13]; 333.3 nM): 0.422
phenotypic distance (E57 [13]; 1000 nM): 0.498
phenotypic distance (E57 [13]; 3000 nM): 0.628
phenotypic distance (FT3469 [14]; 4.1 nM): 0.707
phenotypic distance (FT3469 [14]; 12.3 nM): 0.982
phenotypic distance (FT3469 [14]; 37 nM): 0.677
phenotypic distance (FT3469 [14]; 111.1 nM): 1.1
phenotypic distance (FT3469 [14]; 333.3 nM): 0.895
phenotypic distance (FT3469 [14]; 1000 nM): 1.08
phenotypic distance (FT3469 [14]; 3000 nM): 0.56
